Where two headings read alike, the source gives them in different places.
How the values were obtained:
CT26 MDOTS = test: Bead-based cytokine profiling of CT26 MDOTS; assay type: cell-based, murine; settings: Cmpd1 (1 μM) ± anti-PD-1 (10 μg/mL)
Protocol: Fresh tumor specimens (murine and human patients) were received in media (DMEM) on ice and minced in a 10 cm dish (on ice) using sterile forceps and scalpel. Minced tumor was resuspended in DMEM ([…], […] sodium pyruvate, 1:100 penicillin-streptomycin) (Corning CellGro, Manassas, Va.) +10% FBS (Gemini Bio-Products, West Sacramento, Calif.), 100 U/mL collagenase type IV (Life Technologies, Carlsbad, Calif.), and 15 mM HEPES (Life Technologies, Carlsbad, Calif.), except for CT26 tumors that were prepared in RPMI. Samples were pelleted and resuspended in 10-20 mL media. Red blood cells were removed from visibly bloody samples using RBC Lysis Buffer (Boston Bio-Products, Ashland, Mass.). […]
Two multiplex assays were performed utilizing a bead-based immunoassay approach, the Bio-Plex Pro™ Human Cytokine 40-plex Assay (Cat #171AK99MR2) and Bio-Plex Pro™ Mouse Cytokine Panel 1, 23-plex (Cat #M60009RDPD) on a Bio-plex 200 system (Cat #171000201). […] Fold changes relative to the MDOT/PDOT control were calculated and plotted as log 2FC. Lower and upper limits of quantitation (LLOQ/ULOQ) were imputed from standard curves for cytokines above or below detection. […]

off-target kinases [1] = target: off-target kinases (Homo sapiens, UniProt P36888); test: SelectScreen Kinase Profiling, single point inhibition and IC50 for off-target kinases; assay type: biochemical; parameters: other: FLT3 ITD; 1000 μM; settings: FLT3 ITD; 1000 μM; LanthaScreen Binding
Protocol: (§1) Biochemical single point inhibition and IC50 concentrations for TBK1, IKKε (IKBKE), and off-target kinases were determined at ThermoFisher Scientific using SelectScreen Kinase Profiling Services (Madison, Wis., USA) (Tables S4A and S4B-1-7). To determine cellular potency, the human colorectal cancer carcinoma cell line HCT116 (ATCC, Manassas, Va.) was maintained in T175 flasks in complete RPMI medium; RPMI 1640 supplemented with 10% FBS, 1× Penicillin-Streptomycin solution and 1×MEM (non-essential amino acids). HCT116 cells were grown to 90-95% confluency in T175 flasks containing complete RPMI medium and transfected in bulk using Lipofectamine 2000 (Invitrogen, Carlsbad, Calif.) with 70 μg of ISG54-luciferase reporter plasmid (Elim Biopharmaceuticals Inc., Hayward, Calif.). The reporter plasmid contains a luciferase gene expression cassette under the transcriptional regulation of the promoter of the human interferon stimulated gene 54 (ISG54). Transfection of the cells was allowed to take place for 6 hours, after which the cells were harvested by treatment with 0.25% trypsin EDTA (Corning Inc., Corning, N.Y.). Trypsinized cells were added to 384-well poly-d-lysine treated black clear bottom tissue culture assay plates (Greiner Bio-One GmbH, Kremsmünster, Austria) at a density of 20,000 cells/well in 80 μL of complete RPMI medium and incubated overnight. After 16-18 hours post-transfection, the assay plates were washed with PBS (Corning Inc., Corning, N.Y.), followed by addition of 80 μL/well of serum-free RPMI 1640 medium containing 1× Penicillin-Streptomycin solution, 1×MEM and 350 nL of DMSO or titrations of Compound 1. […] The assay plates were incubated for 5 hours at 37° C., followed by addition of One-Glo luciferase firefly reagent (Promega, Madison, Wis.) at 1:1 volume/well and luminescence was measured in an EnVision Multilabel Plate Reader (PerkinElmer, Santa Clara, Calif.). The EC50 values were calculated from the fit of the dose-response curves to a four-parameter equation. […]

off-target kinases [2] = target: off-target kinases (Homo sapiens, UniProt P78527); test: as above; assay type: biochemical
Protocol: Biochemical single point inhibition and IC50 concentrations for TBK1, IKKε (IKBKE), and off-target kinases were determined at ThermoFisher Scientific using SelectScreen Kinase Profiling Services (Madison, Wis., USA) (Tables S4A and S4B-1-7). To determine cellular potency, the human colorectal cancer carcinoma cell line HCT116 (ATCC, Manassas, Va.) was maintained in T175 flasks in complete RPMI medium; RPMI 1640 supplemented with 10% FBS, 1× Penicillin-Streptomycin solution and 1×MEM (non-essential amino acids). HCT116 cells were grown to 90-95% confluency in T175 flasks containing complete RPMI medium and transfected in bulk using Lipofectamine 2000 (Invitrogen, Carlsbad, Calif.) with 70 μg of ISG54-luciferase reporter plasmid (Elim Biopharmaceuticals Inc., Hayward, Calif.). The reporter plasmid contains a luciferase gene expression cassette under the transcriptional regulation of the promoter of the human interferon stimulated gene 54 (ISG54). Transfection of the cells was allowed to take place for 6 hours, after which the cells were harvested by treatment with 0.25% trypsin EDTA (Corning Inc., Corning, N.Y.). Trypsinized cells were added to 384-well poly-d-lysine treated black clear bottom tissue culture assay plates (Greiner Bio-One GmbH, Kremsmünster, Austria) at a density of 20,000 cells/well in 80 μL of complete RPMI medium and incubated overnight. After 16-18 hours post-transfection, the assay plates were washed with PBS (Corning Inc., Corning, N.Y.), followed by addition of 80 μL/well of serum-free RPMI 1640 medium containing 1× Penicillin-Streptomycin solution, 1×MEM and 350 nL of DMSO or titrations of Compound 1. Compound 1 titrations were generated by 1.5-fold dilution steps in two overlapping serial dilution series to generate a 40-point compound dose range. After incubation at 37° C. for 1 hour, the cells were stimulated with Poly(I:C) (InvivoGen, San Diego, Calif.) at a final concentration of 15 μg/mL in Optimem media (Life Technologies, Rockville, Md.). The assay plates were incubated for 5 hours at 37° C., followed by addition of One-Glo luciferase firefly reagent (Promega, Madison, Wis.) at 1:1 volume/well and luminescence was measured in an EnVision Multilabel Plate Reader (PerkinElmer, Santa Clara, Calif.). The EC50 values were calculated from the fit of the dose-response curves to a four-parameter equation. All EC50 values represent geometric mean values of a minimum of four determinations.

off-target kinases [3] = target: off-target kinases (Homo sapiens, UniProt P07948); test: as above; assay type: biochemical; parameters: other: LYN B; 1000 μM; ATP Km app; ZLYTE; settings: LYN B, ATP Km app, ZLYTE
Protocol: as §1

off-target kinases (Homo sapiens, UniProt P78527), sequence (P78527 whole entry): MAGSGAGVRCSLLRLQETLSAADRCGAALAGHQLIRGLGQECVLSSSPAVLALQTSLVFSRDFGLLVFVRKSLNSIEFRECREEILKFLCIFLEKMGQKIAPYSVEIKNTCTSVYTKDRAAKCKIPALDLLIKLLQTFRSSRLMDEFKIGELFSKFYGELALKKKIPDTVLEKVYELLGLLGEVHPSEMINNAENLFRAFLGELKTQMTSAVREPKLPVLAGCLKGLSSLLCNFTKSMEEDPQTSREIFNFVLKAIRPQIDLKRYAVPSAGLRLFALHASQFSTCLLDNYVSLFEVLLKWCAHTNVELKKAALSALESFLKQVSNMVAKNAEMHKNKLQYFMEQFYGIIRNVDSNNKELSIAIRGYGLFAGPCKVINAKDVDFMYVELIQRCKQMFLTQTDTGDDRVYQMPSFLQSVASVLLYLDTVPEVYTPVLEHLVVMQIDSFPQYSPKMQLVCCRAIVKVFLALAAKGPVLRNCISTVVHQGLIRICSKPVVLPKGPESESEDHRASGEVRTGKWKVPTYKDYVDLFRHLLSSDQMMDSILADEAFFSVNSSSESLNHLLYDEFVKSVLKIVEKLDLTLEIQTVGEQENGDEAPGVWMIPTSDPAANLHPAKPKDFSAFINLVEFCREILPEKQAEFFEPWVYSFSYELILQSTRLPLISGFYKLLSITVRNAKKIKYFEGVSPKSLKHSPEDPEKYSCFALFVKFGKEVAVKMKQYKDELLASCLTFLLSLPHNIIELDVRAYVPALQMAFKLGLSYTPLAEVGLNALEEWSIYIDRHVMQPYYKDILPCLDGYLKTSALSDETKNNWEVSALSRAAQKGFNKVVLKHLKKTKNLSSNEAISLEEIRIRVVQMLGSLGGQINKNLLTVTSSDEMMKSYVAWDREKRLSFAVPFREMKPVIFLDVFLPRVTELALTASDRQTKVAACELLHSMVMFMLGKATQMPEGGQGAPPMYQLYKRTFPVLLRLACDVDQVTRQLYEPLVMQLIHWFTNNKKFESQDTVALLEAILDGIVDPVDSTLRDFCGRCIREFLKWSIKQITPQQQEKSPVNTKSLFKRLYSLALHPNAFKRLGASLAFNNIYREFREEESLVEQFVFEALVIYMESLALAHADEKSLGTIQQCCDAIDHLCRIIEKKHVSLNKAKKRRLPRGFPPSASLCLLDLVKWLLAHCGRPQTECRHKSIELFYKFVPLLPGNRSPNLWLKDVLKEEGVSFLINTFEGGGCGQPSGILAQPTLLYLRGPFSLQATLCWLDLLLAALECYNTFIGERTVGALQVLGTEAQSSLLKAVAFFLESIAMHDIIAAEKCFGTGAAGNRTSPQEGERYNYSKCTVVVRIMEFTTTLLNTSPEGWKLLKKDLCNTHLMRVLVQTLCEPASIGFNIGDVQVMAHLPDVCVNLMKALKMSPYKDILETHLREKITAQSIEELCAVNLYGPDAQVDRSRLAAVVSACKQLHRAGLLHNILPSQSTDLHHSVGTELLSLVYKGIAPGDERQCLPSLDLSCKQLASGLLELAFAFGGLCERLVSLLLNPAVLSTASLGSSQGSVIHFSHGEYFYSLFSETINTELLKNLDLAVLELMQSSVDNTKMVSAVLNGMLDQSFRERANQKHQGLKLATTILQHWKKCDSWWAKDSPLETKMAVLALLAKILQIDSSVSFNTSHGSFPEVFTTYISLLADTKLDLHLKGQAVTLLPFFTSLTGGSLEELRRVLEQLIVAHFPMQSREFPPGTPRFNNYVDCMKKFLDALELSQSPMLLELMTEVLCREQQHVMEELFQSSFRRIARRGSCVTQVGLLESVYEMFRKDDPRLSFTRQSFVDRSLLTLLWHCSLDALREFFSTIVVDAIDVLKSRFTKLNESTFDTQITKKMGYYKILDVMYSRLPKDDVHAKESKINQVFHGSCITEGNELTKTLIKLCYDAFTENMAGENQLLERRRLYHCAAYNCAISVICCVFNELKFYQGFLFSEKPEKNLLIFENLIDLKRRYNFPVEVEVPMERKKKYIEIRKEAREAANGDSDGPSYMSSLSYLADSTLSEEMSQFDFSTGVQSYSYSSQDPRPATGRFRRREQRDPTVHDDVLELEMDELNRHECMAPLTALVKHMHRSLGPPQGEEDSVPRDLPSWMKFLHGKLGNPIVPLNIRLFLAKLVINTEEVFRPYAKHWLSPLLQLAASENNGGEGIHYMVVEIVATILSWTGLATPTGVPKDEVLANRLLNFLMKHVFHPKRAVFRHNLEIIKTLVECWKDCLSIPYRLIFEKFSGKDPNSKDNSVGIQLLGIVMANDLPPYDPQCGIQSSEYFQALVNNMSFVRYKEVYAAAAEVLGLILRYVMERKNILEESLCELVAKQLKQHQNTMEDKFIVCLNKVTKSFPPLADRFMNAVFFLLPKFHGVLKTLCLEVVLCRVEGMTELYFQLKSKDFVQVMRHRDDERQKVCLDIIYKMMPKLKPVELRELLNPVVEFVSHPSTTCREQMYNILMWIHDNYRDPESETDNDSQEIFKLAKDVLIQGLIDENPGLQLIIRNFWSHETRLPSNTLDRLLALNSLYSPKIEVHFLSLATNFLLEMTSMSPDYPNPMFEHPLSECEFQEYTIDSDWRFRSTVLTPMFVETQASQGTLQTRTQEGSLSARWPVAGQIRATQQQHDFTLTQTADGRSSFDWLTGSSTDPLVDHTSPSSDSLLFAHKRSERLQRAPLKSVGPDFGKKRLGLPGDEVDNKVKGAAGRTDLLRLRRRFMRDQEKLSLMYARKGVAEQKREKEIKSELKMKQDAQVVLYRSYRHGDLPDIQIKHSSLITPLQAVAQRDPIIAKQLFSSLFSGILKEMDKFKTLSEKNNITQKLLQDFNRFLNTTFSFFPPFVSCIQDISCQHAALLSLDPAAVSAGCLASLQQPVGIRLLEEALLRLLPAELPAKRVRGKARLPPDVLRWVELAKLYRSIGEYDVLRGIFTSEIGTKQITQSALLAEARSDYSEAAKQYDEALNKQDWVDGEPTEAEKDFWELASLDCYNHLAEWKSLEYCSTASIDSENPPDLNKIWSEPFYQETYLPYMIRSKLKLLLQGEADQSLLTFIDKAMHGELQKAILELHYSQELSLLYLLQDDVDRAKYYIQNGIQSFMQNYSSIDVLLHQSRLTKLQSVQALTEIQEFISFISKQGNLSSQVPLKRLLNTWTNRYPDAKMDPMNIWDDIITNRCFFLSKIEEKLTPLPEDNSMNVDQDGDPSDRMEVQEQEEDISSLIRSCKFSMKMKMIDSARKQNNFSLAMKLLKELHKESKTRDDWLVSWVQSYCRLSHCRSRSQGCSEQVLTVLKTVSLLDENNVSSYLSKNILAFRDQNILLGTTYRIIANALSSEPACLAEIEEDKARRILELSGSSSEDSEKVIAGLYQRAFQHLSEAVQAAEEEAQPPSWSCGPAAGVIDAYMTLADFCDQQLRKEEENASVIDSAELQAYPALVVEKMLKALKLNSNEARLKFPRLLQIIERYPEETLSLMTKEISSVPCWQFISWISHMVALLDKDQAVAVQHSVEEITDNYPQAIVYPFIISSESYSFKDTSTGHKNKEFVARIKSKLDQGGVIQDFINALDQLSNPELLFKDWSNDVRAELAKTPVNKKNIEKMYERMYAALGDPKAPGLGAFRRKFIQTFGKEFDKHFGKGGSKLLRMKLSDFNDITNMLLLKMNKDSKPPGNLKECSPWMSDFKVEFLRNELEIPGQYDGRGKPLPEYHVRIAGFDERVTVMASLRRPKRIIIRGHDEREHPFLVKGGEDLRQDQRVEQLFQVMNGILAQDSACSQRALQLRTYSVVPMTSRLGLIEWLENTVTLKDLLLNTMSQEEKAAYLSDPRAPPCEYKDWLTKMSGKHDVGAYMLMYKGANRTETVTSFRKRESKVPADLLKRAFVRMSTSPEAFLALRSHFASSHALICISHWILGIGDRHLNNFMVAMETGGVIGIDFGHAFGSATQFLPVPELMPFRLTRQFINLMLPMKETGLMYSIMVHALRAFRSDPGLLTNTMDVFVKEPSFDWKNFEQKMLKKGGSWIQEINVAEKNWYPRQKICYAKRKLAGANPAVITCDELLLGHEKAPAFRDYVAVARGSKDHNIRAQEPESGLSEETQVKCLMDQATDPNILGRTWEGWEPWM
off-target kinases (Homo sapiens, UniProt P07948), sequence (P07948 1-491 isoform P07948-2): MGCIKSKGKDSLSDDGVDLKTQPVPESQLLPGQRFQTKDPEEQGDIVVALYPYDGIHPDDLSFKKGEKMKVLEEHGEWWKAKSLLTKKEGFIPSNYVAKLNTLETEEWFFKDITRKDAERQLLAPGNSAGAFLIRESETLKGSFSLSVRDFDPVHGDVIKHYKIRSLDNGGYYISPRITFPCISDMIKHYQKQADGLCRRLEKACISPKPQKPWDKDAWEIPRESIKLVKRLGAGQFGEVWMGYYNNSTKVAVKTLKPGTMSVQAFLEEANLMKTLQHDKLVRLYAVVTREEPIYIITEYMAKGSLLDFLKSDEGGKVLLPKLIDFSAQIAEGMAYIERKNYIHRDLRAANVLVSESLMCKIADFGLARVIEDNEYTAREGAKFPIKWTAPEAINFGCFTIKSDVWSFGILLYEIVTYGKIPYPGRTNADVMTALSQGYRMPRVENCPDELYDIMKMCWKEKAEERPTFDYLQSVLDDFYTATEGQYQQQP

Question: How did the “cytokines involved in activated innate immune responses (e.g., G-CSF) in CT26 MDOTS” value (CT26 MDOTS) turn out when `N#Cc1cc(-c2ncnc(Nc3ccc(N4CCN(C5COC5)CC4)cc3)n2)ccc1OC1CCOCC1` [Compound 1, 5-(4-((4-(4-(oxetan-3-yl)piperazin-1-yl)phenyl)amino)-1,3,5-triazin-2-yl)-2-((tetrahydro-2H-pyran-4-yl)oxy)benzonitrile] was run?
Answer: concomitant induction

Question: What about the “levels of CCL4, CCL3, and IL-1β in CT26 MDOTS” value (CT26 MDOTS) of the same compound?
Answer: Decreased levels

Question: What about the “% Inhibition 1” value (off-target kinases [1]) of the same compound?
Answer: 64%

Question: What about the “% Inhibition 2” value (off-target kinases [1]) of the same compound?
Answer: 62%

Question: And the “% Inhibition Avg” value (off-target kinases [1])?
Answer: 63%

Question: What about the inhibition (off-target kinases [2]; DNA-PK, ZLYTE, ATP Km app, read-out: % Inhibition 1) of the same compound?
Answer: 2%

Question: What about the inhibition (off-target kinases [2]; DNA-PK, ZLYTE, ATP Km app, read-out: % Inhibition 2) of the same compound?
Answer: -4%

Question: And the inhibition (off-target kinases [2]; read-out: % Inhibition Avg)?
Answer: -1%

Question: What about the inhibition (off-target kinases [3]; read-out: % Inhibition 1) of the same compound?
Answer: 56%

Question: What about the inhibition (off-target kinases [3]; read-out: % Inhibition 2) of the same compound?
Answer: 50%

Question: What about the inhibition (off-target kinases [3]; read-out: % Inhibition Avg) of the same compound?
Answer: 53%

— patent publication US11572590B2, “Methods for evaluating tumor cell spheroids using 3D microfluidic cell culture device” (Dana-Farber Cancer Institute, Inc., priority 2017, dated 2023)
